Laboratory results as given in paper PMC9299640, “Incorporation of β‐Alanine in Cu(II) ATCUN Peptide Complexes Increases ROS Levels, DNA Cleavage and Antiproliferative Activity” (Chemistry (Weinheim an Der Bergstrasse, Germany), 2021).

Assays:
CT-DNA = experiment: DNA melting curves by UV/VIS spectroscopy; assay type: binding, calf
[1] = test system: SW480 (colon adenocarcinoma); experiment: Antiproliferative activity, sulforhodamine B (SRB) assay; assay type: cell-based, human
Protocol: (§1) The antiproliferative activity of selected Cu(II) ATCUN complexes was investigated towards different tumor cell lines (HCT116, NCI-H460, SiHa and SW480 cells) and expressed as the IC50 values.
(§2) Table S13. Accumulation of Cu in HCT116 cells after 24 h incubation with Cu-GGH, 1, 3, 4 and CuCl2 (70 µM) as determined by ICP-MS (n = 3), and cytotoxic activity in human cancer cell lines HCT116, NCI-H460, SiHa and SW480 expressed as the IC50 ± SD (in µM) as well as by the residual viable cells after treatment with 70 μM of the respective compound (%) as determined by the SRB assay (exposure time 72 h). accumulated Cu IC50 values […]
(§3) a – indicates no antiproliferative activity observed after treatment with the respective compound at 70 μM for 72 h.
(§4) S-12.1 Determination of IC50 values against HCT116, NCI-H460, SiHa and SW480 […]
(§5) HCT116, SW480 and NCI-H460 cells were supplied by ATCC, while SiHa cells were supplied by Dr. David Cowan, of the Ontario Cancer Institute, Canada. The cells were grown in α-MEM (Life Technologies) supplemented with 5% fetal calf serum (Moregate Biotech) at 37 °C in a humidified incubator with 5% CO2. […]
(§6) in 96-well plates and left to settle for 24 h. Compounds were added as water solutions to the plates in a series of 3-fold dilutions for 72 h before the assay was terminated by addition of 10% trichloroacetic acid (Merck Millipore) at 4 °C for 1 h. Cells were stained […]
(§7) with 0.4% sulforhodamine B (Sigma-Aldrich) in 1% acetic acid for 30 min in the dark at room temperature and then washed with 1% acetic acid to remove unbound dye. The stain was dissolved in unbuffered Tris base (10 mM, Serva) for 30 min on a plate shaker in the dark and quantified on a BioTek EL808 microplate reader at an absorbance of 490 nm with a reference wavelength of 450 nm to determine the percentage of cell-growth inhibition by determining the absorbance of each sample relative to a negative (no inhibitor) and a no-growth control (day 0). IC50 values were calculated with SigmaPlot 12.5 (Systat Software Inc.) using a three-parameter logistic sigmoidal dose−response curve between the calculated growth inhibition and the compound concentration. The presented IC50 values are the mean of at least three independent experiments, where 10 concentrations were tested in duplicate for each compound.
(§8) Ventures), by diluting with a matrix-matched solution with regard to HNO3 and Tm concentration, producing calibration standards with concentrations of 0.5, 1, 3, 5, 7, 10, […]
(§9) The measured Cu concentrations in the cell accumulation samples were in the range of 27–82 μg/L. The reported values are the means of at least three independent accumulation experiments conducted in triplicates with blank wells for each substance to account for unspecific binding of the Cu(II) complexes to the plastic of the well plates.
(§10) Accumulation values have been corrected by subtracting the average amount Cu determined in the cell-free wells.
(§11) Calibration curves for Cu were prepared with concentrations ranging from 0.5–100 µg/L. The limit of detection (LOD) was defined as 3 times the random error in the y-direction (Sy/x) of the calibration curve divided by the slope of the calibration curve. The limit of quantification (LOQ) was defined as 10 times the random error in the y-direction (Sy/x) of the calibration curve divided by the slope of the calibration curve.42 The LOD was determined for Cu as 1.8 μg/L and the LOQ was 5.95 μg/L.

[2] = test system: NCI-H460 (non-small cell lung carcinoma); experiment: as above; assay type: cell-based, human; settings: exposure 72 h, 3-fold dilutions, α-MEM + 5% fetal calf serum, 37 °C, mean ± SD of at least three independent experiments
Protocol: as §1, §2, §3, §4, §5, §6, §7, §8, §9, §10, §11

[3] = test system: SiHa (cervical carcinoma); experiment: as above; assay type: cell-based, human
Protocol: as §1, §2, §3, §4, §5, §6, §7, §8, §9, §10, §11

[4] = test system: HCT116 (colorectal carcinoma); experiment: as above; assay type: cell-based, human
Protocol: as §1, §2, §3, §4, §5, §6, §7, §8, §9, §10, §11

[5] = after treatment with 70 μM, 72 h
[6] = exposure 72 h, 3-fold dilutions, α-MEM + 5% fetal calf serum, 37 °C, mean of at least three independent experiments

[Cl][Cu][Cl] [CuCl2, reference compound]
ΔTm relative to CT-DNA (CT-DNA; 2.5 µM complex or CuCl2, CT-DNA 50 µM (ref. Tm 78.3 °C), MOPS 50 mM pH 7.4): 3.2 °C | Tm of CT-DNA after treatment (CT-DNA; 2.5 µM complex or CuCl2, CT-DNA 50 µM, MOPS 50 mM pH 7.4, 260 nm, 0.5 °C/min, Cu(II):peptide 1:1.05): 81.5 °C | residual viable cells SW480 [1, 5]: – (indicates no antiproliferative activity observed after treatment with the respective compound at 70 μM for 72 h) | IC50 [1, 6]: > 70 µM | IC50 [2]: > 70 µM | residual viable cells SiHa [3, 5]: 93 ± 22% | IC50 [3, 6]: > 70 µM | residual viable cells HCT116 [4, 5]: 87 ± 6% | IC50 ([4]; exposure 72 h, 3-fold dilutions, α-MEM + 5% fetal calf serum, 37 °C, Cu(II):peptide 1:1.05, mean ± SD of at least three independent experiments): > 70 µM
